Test results taken from patent US20230096766A1, “AMINO ACID HAVING FUNCTIONAL GROUP CAPABLE OF INTERMOLECULAR HYDROGEN BONDING, PEPTIDE COMPOUND CONTAINING SAME AND METHOD FOR PRODUCTION THEREOF” (Chugai Seiyaku Kabushiki Kaisha, priority 2018, published 2023).
*1 amine or outer side, *2 acyl side, *3 side chain or, on linkers, in order; H or OH if unused. Where a SMILES comes first, the peptide text is derived from it. Bridges are numbered along the chain shown (N, C = ends). [ ]: non-standard residue; d: D form. The star is where a group is joined. ξ: configuration not given here. Phe(3-OMe,4-CONHMs) = COc1cc(C[C@H](N)C(=O)O)ccc1C(=O)NS(C)(=O)=O; Phe(3-CONHMe,4-OMe) = CNC(=O)c1cc(C[C@H](N)C(=O)O)ccc1OC; Phe(3-OMe,4-CONHMe) = CNC(=O)c1ccc(C[C@H](N)C(=O)O)cc1OC; NMePhe(3-Cl) = CN[C@@H](Cc1cccc(Cl)c1)C(=O)O; NMehPhe = CN[C@@H](CCc1ccccc1)C(=O)O; NMeF = CN[C@@H](Cc1ccccc1)C(=O)O; NMeGABA = CN(CCCC(=O)[*:2])[*:1]; NMeI = CC[C@H](C)[C@H](NC)C(=O)O; NMeD = CN[C@@H](CC(=O)O)C(=O)O; NMeL = CN[C@@H](CC(C)C)C(=O)O; Thr(3ξ) = CC(O)[C@H](N)C(=O)O; Propyl(2R-OH) = C[C@@H](O)C*; Butyl(3S-OH) = C[C@H](O)CC*; NMeV = CN[C@H](C(=O)O)C(C)C; NMeAbu = CC[C@H](NC)C(=O)O; NMeA = CN[C@@H](C)C(=O)O; Piperidide = C1CCN(*)CC1; X8 = C1COC[C@@H](C*)N1; Me2NCH2CH2 = CN(C)CC*; NBuGly = CCCCNCC(=O)O; NPrGly = CCCNCC(=O)O; Ethyl(2-OH) = OCC*; Sar = CNCC(=O)O; tBu = CC(C)(C)*

Assay: in vitro
Conditions: human, Caco-2, Caco-2

Row | SMILES | Papp [×10⁻⁶ cm/s]
1 | CCCCN1CC(=O)N(C)[C@@H](CC(C)C)C(=O)N[C@@H](COCCN(C)C)C(=O)N(C)[C@@H](Cc2ccccc2)C(=O)N(C)[C@@H](C(C)C)C(=O)N[C@H](C(=O)N2CCCCC2)CC(=O)N[C@H](CC(C)C)C(=O)N(C)[C@@H](Cc2ccccc2)C(=O)N[C@@H](CC(C)C)C(=O)N(C)[C@@H](CC(C)C)C(=O)N[C@@H]([C@@H](C)O)C1=O [pd51] ([dL][NMeF]L[NMeL]T[NBuGly][NMeL]S(Me2NCH2CH2)[NMeF][NMeV]D-Piperidide; lactam N-11) | 0.07

Same assay, conditions: human, Caco-2, Caco-2 (cm/sec)

Row | SMILES | Papp [×10⁻⁶ cm/s]
2 | CCCCN1CC(=O)N(C)[C@@H](CC(C)C)C(=O)N[C@H](C(=O)N2CCCCC2)CC(=O)N(C)[C@@H](CC)C(=O)N[C@@H](CC(C)C)C(=O)N(C)[C@@H](CC(C)C)C(=O)N(C)[C@@H](Cc2ccccc2)C(=O)N[C@@H](COC[C@@H]2COCCN2)C(=O)N(C)[C@@H](CC)C(=O)N(C)[C@@H](CC(C)C)C(=O)N[C@@H]([C@@H](C)O)C1=O [AP242] ([NMeAbu]L[NMeL][NMeF]S(X8)[NMeAbu][NMeL]T[NBuGly][NMeL]D-Piperidide; lactam N-11) | 1.2
3 | CCCCN1CC(=O)N(C)[C@@H](CC(C)C)C(=O)N[C@@H](COC(C)(C)C)C(=O)N(C)[C@@H](Cc2ccccc2)C(=O)N(C)[C@@H](CC(C)C)C(=O)N[C@H](C(=O)N2CCCCC2)CC(=O)N[C@H](C(C)C)C(=O)N(C)[C@@H](C(C)C)C(=O)N[C@@H](Cc2ccc(OC)c(C(=O)NC)c2)C(=O)N(C)[C@@H](CC(C)C)C(=O)N[C@@H]([C@@H](C)O)C1=O [AP35] ([dV][NMeV][Phe(3-CONHMe,4-OMe)][NMeL]T[NBuGly][NMeL]S(tBu)[NMeF][NMeL]D-Piperidide; lactam N-11) | 2
4 | CC[C@H](C)[C@H]1C(=O)N[C@@H](Cc2ccc(O)cc2)C(=O)N(C)CC(=O)N(C)[C@@H](CC(C)C)C(=O)N[C@H](C(=O)N2CCCCC2)CC(=O)N(C)[C@@H](C)C(=O)N[C@@H](C(C)C)C(=O)N(C)[C@@H](CC(C)C)C(=O)N(C)[C@@H](CC(C)C)C(=O)N[C@@H](C)C(=O)N(C)[C@@H](Cc2ccccc2)C(=O)N1C [pd126] ([NMeA]V[NMeL][NMeL]A[NMeF][NMeI]Y[Sar][NMeL]D-Piperidide; lactam N-11) | 0.42
5 | CC[C@H](C)[C@@H]1NC(=O)[C@H](CC(C)C)N(C)C(=O)CCCN(C)C(=O)C[C@@H](C(=O)N2CCCCC2)NC(=O)[C@H](CC(C)C)N(C)C(=O)[C@H](CC(C)C)N(C)C(=O)[C@H]([C@@H](C)O)NC(=O)[C@H](CC(C)C)N(C)C(=O)[C@H](Cc2ccc(OC)c(C(=O)NC)c2)NC(=O)[C@H](CC(C)C)N(C)C(=O)[C@H](Cc2ccccc2)N(C)C1=O [AP38] ([NMeGABA][NMeL]I[NMeF][NMeL][Phe(3-CONHMe,4-OMe)][NMeL]T[NMeL][NMeL]D-Piperidide; lactam N-11) | 0.2
6 | CC(C)C[C@@H]1NC(=O)[C@H](Cc2ccccc2)N(C)C(=O)[C@H](C)NC(=O)C[C@@H](C(=O)N2CCCCC2)N(C)C(=O)[C@H](Cc2ccccc2)N(C)C(=O)[C@H](Cc2ccccc2)N(C)C(=O)[C@H](COC(C)(C)C)NC(=O)[C@H](CC(C)C)N(C)C(=O)CN(C)C(=O)[C@H]([C@@H](C)O)NC(=O)[C@H](CC(C)C)N(C)C1=O [pd209] (A[NMeF]L[NMeL]T[Sar][NMeL]S(tBu)[NMeF][NMeF][NMeD]-Piperidide; lactam N-11) | 1.7
7 | CCCN1CC(=O)N(C)[C@@H](CC(C)C)C(=O)N[C@H](C(=O)N2CCCCC2)CC(=O)N(C)[C@@H](C)C(=O)N[C@@H](COCCO)C(=O)N(C)[C@@H](CC(C)C)C(=O)N(C)[C@@H](Cc2cccc(Cl)c2)C(=O)N[C@@H](CC(C)C)C(=O)N(C)[C@@H](CCc2ccccc2)C(=O)N(C)[C@@H](CC(C)C)C(=O)N[C@@H]([C@@H](C)O)C1=O [Compound A05] ([NMeA]S(Ethyl(2-OH))[NMeL][NMePhe(3-Cl)]L[NMehPhe][NMeL]T[NPrGly][NMeL]D-Piperidide; lactam N-11) | 0.9
8 | CNC(=O)c1ccc(C[C@@H]2NC(=O)[C@H](CC(C)C)N(C)C(=O)[C@H](CC(C)C)N(C)C(=O)[C@H](CC(C)C)NC(=O)[C@H](CC(C)C)N(C)C(=O)C[C@@H](C(=O)N3CCCCC3)NC(=O)[C@H](CC(C)C)N(C)C(=O)CN(C)C(=O)[C@H](C(C)O)NC(=O)[C@H](C(C)C)N(C)C(=O)[C@H](CC(C)C)N(C)C2=O)cc1OC (stereo partly drawn) [AP32] ([NMeL]L[NMeL][NMeL][Phe(3-OMe,4-CONHMe)][NMeL][NMeV][Thr(3ξ)][Sar][NMeL]D-Piperidide; lactam N-11) | 1.3
9 | CCCCN1CC(=O)N(C)[C@@H](CC(C)C)C(=O)N[C@H](C(=O)N2CCCCC2)CC(=O)N(C)[C@@H](C)C(=O)N[C@@H](COC[C@@H](C)O)C(=O)N(C)[C@@H](CC(C)C)C(=O)N(C)[C@@H](Cc2cccc(Cl)c2)C(=O)N[C@@H](CC(C)C)C(=O)N(C)[C@@H](Cc2ccccc2)C(=O)N(C)[C@@H]([C@@H](C)CC)C(=O)N[C@@H]([C@@H](C)O)C1=O [AP75] ([NMeA]S(Propyl(2R-OH))[NMeL][NMePhe(3-Cl)]L[NMeF][NMeI]T[NBuGly][NMeL]D-Piperidide; lactam N-11) | 1.1
10 | CC(C)C[C@@H]1NC(=O)[C@H](Cc2ccccc2)N(C)C(=O)[C@@H](C(C)C)NC(=O)C[C@@H](C(=O)N2CCCCC2)NC(=O)[C@H](CC(C)C)N(C)C(=O)[C@H](Cc2cccc(Cl)c2)N(C)C(=O)[C@H](COCC[C@H](C)O)NC(=O)[C@H](CC(C)C)N(C)C(=O)CN(C)C(=O)[C@H]([C@@H](C)O)NC(=O)[C@H](CC(C)C)N(C)C1=O [AP100] ([dV][NMeF]L[NMeL]T[Sar][NMeL]S(Butyl(3S-OH))[NMePhe(3-Cl)][NMeL]D-Piperidide; lactam N-11) | 0.55
11 | CCCCN1CC(=O)N(C)[C@@H](Cc2ccccc2)C(=O)N(C)[C@@H](CC(C)C)C(=O)N[C@@H](COC(C)(C)C)C(=O)N(C)[C@@H](CC(C)C)C(=O)N[C@H](C(=O)N2CCCCC2)CC(=O)N(C)CC(=O)N(C)[C@@H](Cc2cccc(Cl)c2)C(=O)N[C@@H](COC[C@@H](C)O)C(=O)N(C)[C@@H](CC(C)C)C(=O)N[C@@H]([C@@H](C)O)C1=O [AP77] ([Sar][NMePhe(3-Cl)]S(Propyl(2R-OH))[NMeL]T[NBuGly][NMeF][NMeL]S(tBu)[NMeL]D-Piperidide; lactam N-11) | 1
12 | CC[C@H](C)[C@@H]1NC(=O)[C@H](CC(C)C)N(C)C(=O)CCCN(C)C(=O)C[C@@H](C(=O)N2CCCCC2)NC(=O)[C@H](CC(C)C)N(C)C(=O)[C@H](CC(C)C)N(C)C(=O)[C@H]([C@@H](C)O)NC(=O)[C@H](CC(C)C)N(C)C(=O)[C@H](Cc2ccc(C(=O)NS(C)(=O)=O)c(OC)c2)NC(=O)[C@H](CC(C)C)N(C)C(=O)[C@H](Cc2ccccc2)N(C)C1=O [AP138] ([NMeGABA][NMeL]I[NMeF][NMeL][Phe(3-OMe,4-CONHMs)][NMeL]T[NMeL][NMeL]D-Piperidide; lactam N-11) | 0.06
13 | CCCCN1CC(=O)N(C)[C@@H](C(C)C)C(=O)N[C@@H](COC(C)(C)C)C(=O)N(C)[C@@H](Cc2ccccc2)C(=O)N(C)[C@@H](CC(C)C)C(=O)N[C@H](C(=O)N2CCCCC2)CC(=O)N[C@H](C(C)C)C(=O)N(C)[C@@H](Cc2ccccc2)C(=O)N[C@@H](COCC[C@H](C)O)C(=O)N(C)[C@@H](CC(C)C)C(=O)N[C@@H]([C@@H](C)O)C1=O [AP99] ([dV][NMeF]S(Butyl(3S-OH))[NMeL]T[NBuGly][NMeV]S(tBu)[NMeF][NMeL]D-Piperidide; lactam N-11) | 0.86
